Laboratory results from patent US20150141460A1, “Anti-inflammatory Compositions” (Cambridge Enterprise Limited, priority 2007, published 2015).

Columns and labels:
[1] = system: SDF-1α induced migration of THP-1 cells; test: ChemoTx transwell migration assay, SDF-1α induced migration of THP-1 cells; format: cell-based; settings: Homo sapiens; THP-1 cell line; maximal dose of chemoattractant; read-out: ED50 SDF-1α induced migration
Method: In principle, this assay consists of two chambers separated by a porous membrane. The chemoattractant is placed in the lower compartment and the cells are placed in the upper compartment. After incubation for a period at 37° C. the cells move towards the chemoattractant, and the number of cells in the lower compartment is proportional to the chemoattractant activity (relative to a series of controls).
Next, the chemoattractant solution to be placed in the lower compartment is prepared. For example, MCP-1 is diluted in GBSS+BSA to give a final concentration of 25 ng/ml. This is divided into two pots, as for the cell suspension. To one pot, the test compound is added to the same final concentration as was added to the cell suspension, while to the other pot an equal volume of GBSS+BSA plus vehicle as appropriate (e.g., not more than 1% DMSO) is added. Alternatively, other chemokines may be used (SDF-1α at 7.5 ng/ml; RANTES at 50 ng/ml; IL-8 at 10 ng/ml using neutrophils as the target cell population). […]
The impact of the test substance is calculated by comparing the chemoattractant-induced migration which occurred in the presence or absence of various concentrations of the test substance. Typically, the inhibition of migration is expressed as a percentage of the total chemoattractant-induced migration which was blocked by the presence of the compound. […]

[2] = system: LPS-induced TNF-α production; test: Sub-lethal LPS-induced endotoxemia in mice, serum TNF-α by ELISA; format: in vivo; settings: mice; doses above 1 μg/mouse; subcutaneous or oral route
Method: FIGS. 5A-5E show representative dose response curves for the inhibition of LPS induced TNF-α production in vivo in a murine model of sub-lethal endotoxemia. In each experiment, groups of six mice received pre-treatment with the five compounds (FIG. 5A: (II); FIG. 5B: (III); FIG. 5C: (V); FIG. 5D: (I′) and FIG. 5E: (IV)) at various doses, via either the oral route (circles) or subcutaneous route (triangles). 30-60 mins later, animals were challenged with LPS via the intraperitoneal route, and serum was prepared from a terminal bleed 3 hours later. The level of TNF-α in the blood was measured by ELISA, and the degree of inhibition of LPS-induced TNF-α production (calculated as the concentration of TNF-α in mice exposed to LPS minus the concentration of TNF-α in mice which received a sham exposure to endotoxin-free PBS) is shown on the Y-axis of each graph as the mean of six animals, with whiskers representing SEMs. The concentration of TNF-α in mice receiving LPS but no BSCI treatment was typically 5,000 to 6,000 pg/ml on average (compared to <10 pg/ml in unchallenged mice). The ED50 was estimated by linear interpolation of the presented graphs. The X-axis of each graph represents the dose of each compound administered to each mouse in the group in units of mg (1E-07 to 1).
In this assay, mice are given a non-specific pro-inflammatory challenge using bacterial endotoxin (LPS), and the extent of the systemic inflammatory response (measured by serum levels of the central pro-inflammatory cytokine TNF-α, which is essentially absent from the blood under normal conditions, but is rapidly elevated in response to a wide range of inflammatory stimuli). We have selected this model even though it is not, itself, a particularly close model of any human inflammatory disease condition, but because TNF-α is known to be important in very many diseases (including rheumatoid arthritis, autoimmune disorders, Crohn's Disease, atherosclerosis, asthma and many more). Consequently, agents which suppress TNF-α production are already used clinically (e.g. Enbrel™ and other anti-TNF-α antibody products) to treat a wide range of such diseases.
Mice (in groups of 6) were pretreated with various doses of each compound, either by the subcutaneous route 30 mins prior to LPS challenge, or by the oral route (via gavage) 60 mins prior to LPS. The mice were then challenged with an intraperitoneal injection of 750 μg of bacterial LPS and sacrificed 3 hours later. Serum was prepared from a terminal bleed by cardiac puncture, and the concentration of TNF-α is determined by ELISA (R&D Systems). In each experiment, a group of 6 mice receive no LPS to act as a negative control, and a second group receive only LPS (with no candidate inhibitor). […]

[3] = system: chemokine-induced migration; test: BSCI potency: inhibition of chemokine-induced migration in vitro (general statements); format: cell-based

CC(C)(C)C(=O)N[C@H]1CCCNC1=O [Compound (I′), (S)-3-(2′,2′-dimethylpropanoylamino)-tetrahydropyridin-2-one]
EC50 [1]: 0.05 nM | suppression of LPS-induced TNF-α levels [2]: more than 90% | potency as a BSCI, fold more potent than the (R)-enantiomer [3]: 5-25 fold
